# Experimental data as given in US10935540B2, “GDF-15 as a haematological toxicity biomarker” (Novartis AG, priority 2015, dated 2021).
# Key:
# [1] = tested on: patients with liposarcomas; details: cited from earlier work
# animal model = details: cited from earlier work
# thrombopoesis = details: previous studies; cited from earlier work
# [2] = tested on: patients with solid tumors; test: Maximum change of platelet and neutrophil count versus GDF-15 fold change in patients with solid tumors receiving compound of formula I; format: in vivo, human; details: regimen 1A (q3w) 12.5-350 mg or regimen 1B 120 mg
# Protocol: Maximum change of platelet count (FIG. 7) and neutrophil count (FIG. 8) and the GDF-15 values were determined for patients with solid tumors receiving compound of formula I, i.e. (S)-5-(5-Chloro-1-methyl-2-oxo-1,2-dihydro-pyridin-3-yl)-6-(4-chloro-phenyl)-2-(2,4-dimethoxy-pyrimidin-5-yl)-1-isopropyl-5,6-dihydro-1H-pyrrolo[3,4-d]imidazol-4-one, on the first day of a three week cycle (herein also referred to as regimen 1A or q3w) in doses of 12.5 mg (A), 25 mg (B), 50 mg (C), 100 mg (D), 200 mg (E), 250 mg (F), 350 mg(G) or on the first and eighth day of a 4 week cycle (herein also referred to as regimen 1B) in a dose of 120 mg (I). The left graphs show the maximum platelet count change vs. GDF-15 fold change, the GDF-15 being measured on day 1 of the first cycle (C1D1). The right graphs show the maximum platelet count change vs. GDF-15 fold change.
# The platelet/neutrophil count was determined before receipt of first dose (baseline) and on day 1, 7 and 15 of the first and second cycle for regimen 1A (A-G) or on day 1, 8, 14, 22 of the first and second cycle for regimen 1B (I) and the maximum platelet change value in comparison to the baseline was selected. The “Change of platelet/neutrophile counts” value is calculated as post-baseline value minus baseline value and given in number of platelets/neutrophils per microliter of blood. […]
# patients = test: Clinical analysis of serum GDF-15 (ELISA) versus platelet counts in patients treated with Compound A; format: in vivo, human; details: 21 patients, continuous three times weekly oral administration; preliminary analysis (FIG. 3)
# Protocol: Patients were treated with (5)-1-(4-Chloro-phenyl)-7-isopropoxy-6-methoxy-2-(4-{methyl-[4-(4-methyl-3-oxo-piperazin-1-yl)-trans-cyclohexylmethyl]-amino}-phenyl)-1,4-dihydro-2H-isoquinolin-3-one (Compound A). Dose range was from 10 to 500 mg three times a week (3QW) with continuous or 2 week on 1 week off dosing regimen. Serum samples were collected from each subject at pre-dose and from 0.5 to 6 h post-dose on the first treatment day.
# The serum level of GDF-15 expression was measured using enzyme-linked immunosorbent assay (ELISA; R&D Systems kit DGD150).
# Clinical data (including platelet counts) were collected from all patients during the course of the treatment period.
# Maximum observation period was 448 days on available platelet data.
# A preliminary data analysis of (S)-1-(4-Chloro-phenyl)-7-isopropoxy-6-methoxy-2-(4-{methyl-[4-(4-methyl-3-oxo-piperazin-1-yl)-trans-cyclohexylmethyl]-amino}-phenyl)-1,4-dihydro-2H-isoquinolin-3-one effect on GDF-15 and platelet counts for 21 patients treated on a continuous three times weekly oral administration of (S)-1-(4-Chloro-phenyl)-7-isopropoxy-6-methoxy-2-(4-{methyl-[4-(4-methyl-3-oxo-piperazin-1-yl)-trans-cyclohexylmethyl]-amino}-phenyl)-1,4-dihydro-2H-isoquinolin-3-one was conducted. The conducted data analysis is represented in a plot on FIG. 3. In this plot, each point represents an individual patient. […]
smiles,measurement,setting,value
CCOc1cc(C(C)(C)C)ccc1C1=N[C@@](C)(c2ccc(Cl)cc2)[C@@](C)(c2ccc(Cl)cc2)N1C(=O)N1CCN(CCCS(C)(=O)=O)CC1 [RG7112],major dose-limiting toxicity,[1]; RG7112 administration,thrombocytopenia
same,patients with induced thrombocytopenia,"[1]; single-agent RG-7112, patients with liposarcomas",40 % of patients
same,time course of drug-induced thrombocytopenia,animal model,occurred rather late during the treatment period and persisted after drug discontinuation
same,effect on thrombopoesis,thrombopoesis,impairs thrombopoesis
"COc1ncc(-c2nc3c(n2C(C)C)[C@H](c2ccc(Cl)cc2)N(c2cc(Cl)cn(C)c2=O)C3=O)c(OC)n1 [compound of formula I, (S)-5-(5-Chloro-1-methyl-2-oxo-1,2-dihydro-pyridin-3-yl)-6-(4-chloro-phenyl)-2-(2,4-dimethoxy-pyrimidin-5-yl)-1-isopropyl-5,6-dihydro-1H-pyrrolo[3,4-d]imidazol-4-one]",correlation of GDF-15 increase with platelet count change,[2]; seen already for GDF-15 C1D1 24 h post-dose (FIG. 7),correlates with a decrease
same,correlation of GDF-15 increase with neutrophil count change,[2]; seen already for GDF-15 C1D1 24 h post-dose (FIG. 8),correlates with a decrease
"COc1cc2c(cc1OC(C)C)[C@H](c1ccc(Cl)cc1)N(c1ccc(N(C)C[C@H]3CC[C@H](N4CCN(C)C(=O)C4)CC3)cc1)C(=O)C2 [Compound A, (S)-1-(4-Chloro-phenyl)-7-isopropoxy-6-methoxy-2-(4-{methyl-[4-(4-methyl-3-oxo-piperazin-1-yl)-trans-cyclohexylmethyl]-amino}-phenyl)-1,4-dihydro-2H-isoquinolin-3-one]",cycle 1 day 1 GDF-15 increase from baseline associated with a higher occurrence of platelet counts dropping below 150 G/L (grade 1 thrombocytopenia CTCAE V4),patients,more than 25%
